The target of test [1] is T1, TrkB extracellular domain (ECD) (Rattus norvegicus, UniProt Q63604).
T1 construct: purified TrkB extracellular domain (ECD) and intracellular domain (ICD) recombinant proteins
The test is described as follows: In vitro binding assay with [3H]7,8-dihydroxyflavone, filter, Scatchard plot: TrkB ECD. As to the method:
To determine whether 7,8-dihydroxyflavone physically and directly binds the TrkB receptor, in vitro binding assays were conducted with purified TrkB extracellular domain (ECD) and intracellular domain (ICD) recombinant proteins. Purified TrkB ECD and ICD (10 μg of each) were incubated with different concentrations of ^3H-7,8-dihydroxyflavone in 1 ml of binding buffer (0.05M Na/K phosphate buffer, pH 7.1, 200 mM NaCl) at 4° C. for 10 minutes. After the incubation, the reaction mixture was loaded on filter paper. The mixture was washed three times with Tris buffer (100 mM Tris, pH 7.1), and the dried filter paper was put into a small vial and subjected to liquid scintillation counter analysis. […] The value of the dissociate constant and the number of sites were obtained from Scatchard plots using the equation r/[L]free=n/Kd−r/Kd, where r is the ratio of the concentration of bound ligand to the total protein concentration and n is the number of binding sites.

The test system of test [2] is Caspase-3 activation. The test is described as follows: Caspase-3 activation in wild-type and TrkC-/- cortical neurons. The test is classed as cell-based, mice. To be noted: FIG. 22 row 5. As to the method:
To further assess whether 7,8-dihydroxyflavone blocks neuronal apoptosis in a TrkB dependent manner, cortical neurons were prepared from homozygous pups of TrkC+/−mice, which were mated to the same genotype. […] Glutamate weakly stimulated both TrkA and TrkB faint phosphorylation regardless of TrkC genotype (FIG. 22, rows 1 and 3). The spontaneous caspase-3 activation in TrkC−/− neurons was suppressed by 7,8-dihydroxyflavone (FIG. 22, row 5).

T1 sequence (Q63604 32-429 limits assumed): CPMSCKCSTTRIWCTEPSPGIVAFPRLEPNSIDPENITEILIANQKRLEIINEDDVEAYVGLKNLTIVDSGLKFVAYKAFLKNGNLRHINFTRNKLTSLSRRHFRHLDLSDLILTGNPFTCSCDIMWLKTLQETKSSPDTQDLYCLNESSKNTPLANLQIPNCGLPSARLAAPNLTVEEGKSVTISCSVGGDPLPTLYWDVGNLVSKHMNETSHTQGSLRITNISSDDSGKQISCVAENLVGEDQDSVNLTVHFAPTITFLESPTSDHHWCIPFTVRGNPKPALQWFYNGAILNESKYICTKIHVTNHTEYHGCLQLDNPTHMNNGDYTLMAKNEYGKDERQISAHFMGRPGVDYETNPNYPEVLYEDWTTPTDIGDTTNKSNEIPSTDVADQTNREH

In general, Kd refers to the free concentration of one partner at which half of the binding sites on the other are occupied at equilibrium, for simple one-to-one binding. As for `O=c1cc(-c2ccccc2)oc2c(O)c(O)ccc12` [7,8-dihydroxyflavone], in test [1] (Scatchard plot, 4° C., 10 minutes, FIG. 16, read-out: binding constant Kd), the Kd is 320 nM. Moreover, the “binding to TrkB ECD” value in test [1] (gradual increments of [3H]-7,8-dihydroxyflavone) is “progressively bound TrkB ECD”. In test [2], the “spontaneous caspase-3 activation in TrkC-/- neurons” value is listed as “suppressed”. The “glutamate-triggered caspase-3 activation” value in test [2] (regardless of TrkC genotype) is listed as “significantly diminished”.

The values are drawn from patent publication US9895344B2, “Treating various disorders with 7,8-dihydroxyflavone and derivatives thereof” (EMORY UNIVERSITY, priority 2008, dated 2018).
